From US8574563B2 (Bristol-Myers Squibb Company, priority 2006, dated 2013)
pEC50: −log10 of the molar value. Read-outs that look alike come from different tables or passages of the source.

Test system: HCV 1b-377-neo replicon cells
Assay: HCV replicon assay, HCV 1b-377-neo replicon cells (1b FRET)
Format: cell-based, Hepatitis C virus genotype 1b
Details: HCV 1b-377-neo replicon cells, HCV 1b genotype, read-out: EC50 range against HCV 1b (Table 2, Range)
Summary of the method: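 Compounds tested in HCV genotype 1b-377-neo replicon cells with a FRET read-out. Cells resistant to a reference NS5A inhibitor through a Y2065H NS5A mutation were run alongside wild-type cells.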

| Compound | pEC50 (Hepatitis C virus) | pEC50 |
| --- | --- | --- |
| COC(=O)N[C@H](C(=O)N1CCC[C@H]1c1nc(-c2ccc(-c3ccc(-c4c[nH]c([C@@H]5CCCN5C(=O)[C@@H](NC(=O)O[C@@H]5CCOC5)C(C)C)n4)cc3)cc2)c[nH]1)C(C)C [Example F56, (3R)-tetrahydro-3-furanyl ((1S)-1-(((2S)-2-(4-(4′-(2-((2S)-1-(N-(methoxycarbonyl)-L-valyl)-2-pyrrolidinyl)-1H-imidazol-4-yl)-4-biphenylyl)-1H-imidazol-2-yl)-1-pyrrolidinyl)carbonyl)-2-methylpropyl)carbamate] | 9.00 to 12.00 | – |
| COC(=O)N[C@H](C(=O)N1CC2(CC2)C[C@H]1c1ncc(-c2ccc(-c3ccc(-c4cnc([C@@H]5CC6(CC6)CN5C(=O)[C@@H](NC(=O)OC)C(C)C)[nH]4)cc3)cc2)[nH]1)C(C)C [Example M145] | 9.00 to 12.00 | – |
| CN1CCN(C(=O)N[C@@H](C(=O)N2CCC[C@H]2c2ncc(-c3ccc(-c4ccc(-c5cnc([C@@H]6CCCN6C(=O)[C@@H]6CCCO6)[nH]5)cc4)cc3)[nH]2)c2ccccc2)CC1 [Example 117, 4-methyl-N-((1R)-2-oxo-1-phenyl-2-((2S)-2-(5-(4′-(2-((2S)-1-((2S)-tetrahydro-2-furanylcarbonyl)-2-pyrrolidinyl)-1H-imidazol-5-yl)-4-biphenylyl)-1H-imidazol-2-yl)-1-pyrrolidinyl)ethyl)-1-piperazinecarboxamide] | 9.00 to 12.00 | – |
| COC(=O)N[C@H](C(=O)N1CCC[C@H]1c1ncc(-c2ccc(-c3ccc(-c4cnc([C@@H]5CCCN5C(=O)N5CCN(C)CC5)[nH]4)cc3)cc2)[nH]1)C(C)C [Example M82, methyl ((1S)-2-methyl-1-(((2S)-2-(5-(4′-(2-((2S)-1-((4-methyl-1-piperazinyl)carbonyl)-2-pyrrolidinyl)-1H-imidazol-5-yl)-4-biphenylyl)-1H-imidazol-2-yl)-1-pyrrolidinyl)carbonyl)propyl) carbamate] | – | 7.00 to 9.00 |
| CCC[C@H](NC(=O)OC)C(=O)N1CCC[C@H]1c1ncc(-c2ccc(-c3ccc(-c4cnc([C@@H]5CCCN5C(=O)[C@H](C)NC(=O)OC)[nH]4)cc3)cc2)[nH]1 [Example M94, methyl ((1S)-1-(((2S)-2-(5-(4′-(2-((2S)-1-((2S)-2-((methoxycarbonyl)amino)propanoyl)-2-pyrrolidinyl)-1H-imidazol-5-yl)-4-biphenylyl)-1H-imidazol-2-yl)-1-pyrrolidinyl)carbonyl)butyl) carbamate] | – | 7.00 to 9.00 |
| CC(C)[C@@H](O)C(=O)N1[C@@H](C)CC[C@H]1c1nc(-c2ccc(-c3ccc(-c4c[nH]c([C@@H]5CC[C@H](C)N5C(=O)[C@H](O)C(C)C)n4)cc3)cc2)c[nH]1 [Example M160, (2R,2′R)-1,1′-(4,4′-biphenyldiylbis(1H-imidazole-4,2-diyl((2S,5S)-5-methyl-2,1-pyrrolidinediyl)))bis(3-methyl-1-oxo-2-butanol)] | 7.00 to 9.00 | – |
| COC(=O)N[C@@H](C(=O)N(C)[C@@H](C)c1ncc(-c2ccc(-c3ccc(-c4cnc([C@@H]5CCCN5C(=O)[C@@H](c5ccccc5)N5CCCCC5)[nH]4)cc3)cc2)[nH]1)c1ccccc1 [Example 131.1-2, methyl ((1R)-2-(methyl((1S)-1-(5-(4′-(2-((2S)-1-((2R)-2-phenyl-2-(1-piperidinyl)acetyl)-2-pyrrolidinyl)-1H-imidazol-5-yl)-4-biphenylyl)-1H-imidazol-2-yl)ethyl)amino)-2-oxo-1-phenylethyl)carbamate] | 9.00 to 12.00 | – |
| COC(=O)N[C@@H](Cc1ccc(CN)cc1)C(=O)N1CCC[C@H]1c1ncc(-c2ccc(-c3ccc(-c4cnc([C@@H]5CCCN5C(=O)[C@@H](NC(=O)OC)C(C)C)[nH]4)cc3)cc2)[nH]1 [cj-103, methyl ((1S)-1-(4-(aminomethyl)benzyl)-2-((2S)-2-(5-(4′-(2-((2S)-1-((2S)-2-((methoxycarbonyl)amino)-3-methylbutanoyl)-2-pyrrolidinyl)-1H-imidazol-5-yl)-4-biphenylyl)-1H-imidazol-2-yl)-1-pyrrolidinyl)-2-oxoethyl)carbamate] | 9.00 to 12.00 | – |
| CCN(CC)[C@@H](C(=O)N1CCC[C@H]1c1ncc(-c2ccc(-c3ccc(-c4cnc([C@@H]5CCCN5C(=O)[C@H](Cc5ccccn5)NC(=O)OC)[nH]4)cc3)cc2)[nH]1)c1ccccc1 [cj-68, methyl ((1S)-2-((2S)-2-(5-(4′-(2-((2S)-1-((2R)-2-(diethylamino)-2-phenylacetyl)-2-pyrrolidinyl)-1H-imidazol-5-yl)-4-biphenylyl)-1H-imidazol-2-yl)-1-pyrrolidinyl)-2-oxo-1-(2-pyridinylmethyl)ethyl)carbamate] | 9.00 to 12.00 | – |
| Cc1nc(CC(=O)N2CCC[C@H]2c2ncc(-c3ccc(-c4ccc(-c5cnc([C@@H]6CCCN6C(=O)[C@@H](c6ccccc6)N6CCCCC6)[nH]5)cc4)cc3)[nH]2)cs1 [Example 107-25, 1-((1R)-2-((2S)-2-(5-(4′-(2-((2S)-1-((2-methyl-1,3-thiazo1-4-yl)acetyl)-2-pyrrolidinyl)-1H-imidazol-5-yl)-4-biphenylyl)-1H-imidazol-2-yl)-1-pyrrolidinyl)-2-oxo-1-phenylethyl) piperidine] | 9.00 to 12.00 | – |
| CN(C)[C@@H](C(=O)N1CCC[C@H]1c1nc(-c2ccc(-c3ccc(-c4cn(C)c([C@@H]5CCCN5C(=O)[C@@H](c5ccccc5)N(C)C)n4)cc3)cc2)cn1C)c1ccccc1 (single isomer, unassigned) [151 isomer 1] | – | 7.00 to 9.00 |
| COC(=O)N[C@@H](C)C(=O)N1CCC[C@H]1c1ncc(-c2ccc(-c3ccc(-c4cnc([C@@H]5CCCN5C(=O)[C@@H](NC(=O)OC)C(C)(C)C)[nH]4)cc3)cc2)[nH]1 [Example M95, methyl ((1S)-1-(((2S)-2-(5-(4′-(2-((2S)-1-(N-(methoxycarbonyl)-L-alanyl)-2-pyrrolidinyl)-1H-imidazol-5-yl)-4-biphenylyl)-1H-imidazol-2-yl)-1-pyrrolidinyl)carbonyl)-2,2-dimethylpropyl)carbamate] | 7.00 to 9.00 | – |
| CN1CCC[C@H]1C(=O)N[C@@H](C(=O)N1CCC[C@H]1c1ncc(-c2ccc(-c3ccc(-c4cnc([C@@H]5CCCN5C(=O)[C@H](NC(=O)[C@@H]5CCCN5C)c5ccccc5)[nH]4)cc3)cc2)[nH]1)c1ccccc1 [Example 25-3, (2S,2′S)-N,N′-(4,4′-biphenyldiylbis(1H-imidazole-5,2-diyl(2S)-2,1-pyrrolidinediyl((1R)-2-oxo-1-phenyl-2,1-ethanediyl)))bis(1-methyl-2-pyrrolidinecarboxamide)] | 9.00 to 12.00 | – |
| COC(=O)N[C@H](C(=O)N1CCC[C@H]1c1ncc(-c2ccc(-c3ccc(-c4[nH]c([C@@H]5CCCN5C(=O)[C@@H](NC(=O)OC)[C@@H](C)OC)nc4C(F)(F)F)cc3)cc2)[nH]1)[C@@H](C)OC [Example J42, methyl ((1S,2R)-2-methoxy-1-(((2S)-2-(5-(4′-(2-((2S)-1-(N-(methoxycarbonyl)-O-methyl-L-threonyl)-2-pyrrolidinyl)-4-(trifluoromethyl)-1H-imidazol-5-yl)-4-biphenylyl)-1H-imidazol-2-yl)-1-pyrrolidinyl)carbonyl)propyl)carbamate] | 9.00 to 12.00 | – |
| CCCCOC(=O)N[C@@H](C)C(=O)N1CCC[C@H]1c1nc(-c2ccc(-c3ccc(-c4cnc([C@@H]5CCCN5C(=O)[C@H](C)NC(=O)OCCCC)[nH]4)cc3)cc2)c[nH]1 [Example F21, butyl ((1S)-2-((2S)-2-(4-(4′-(2-((2S)-1-(N-(butoxycarbonyl)-L-alanyl)-2-pyrrolidinyl)-1H-imidazol-5-yl)-4-biphenylyl)-1H-imidazol-2-yl)-1-pyrrolidinyl)-1-methyl-2-oxoethyl)carbamate] | 6.00 to 7.00 | – |
| COC(=O)N[C@@H](C(=O)N1CCC[C@H]1c1ncc(-c2ccc(-c3ccc(-c4cnc([C@@H]5CCCN5C(=O)Cc5cccc(C)c5)[nH]4)cc3)cc2)[nH]1)c1ccccc1 [Example 84-71, methyl ((1R)-2-((2S)-2-(5-(4′-(2-((2S)-1-((3-methylphenyl)acetyl)-2-pyrrolidinyl)-1H-imidazol-5-yl)-4-biphenylyl)-1H-imidazol-2-yl)-1-pyrrolidinyl)-2-oxo-1-phenylethyl)carbamate] | 7.00 to 9.00 | – |
| CCN(CC)[C@@H](C)C(=O)N1CCC[C@H]1c1ncc(-c2ccc(-c3ccc(-c4cnc([C@@H]5CCCN5C(=O)[C@@H](NC(=O)OC)C(C)C)[nH]4)cc3)cc2)[nH]1 [Example M69, methyl ((1S)-1-(((2S)-2-(5-(4′-(2-((2S)-1-(N,N-diethyl-L-alanyl)-2-pyrrolidinyl)-1H-imidazol-5-yl)-4-biphenylyl)-1H-imidazol-2-yl)-1-pyrrolidinyl)carbonyl)-2-methylpropyl)carbamate] | 6.00 to 7.00 | – |
| COC(=O)N[C@@H](CC(C)C)C(=O)N1C[C@H](F)C[C@H]1c1ncc(-c2ccc(-c3ccc(-c4cnc([C@@H]5C[C@@H](F)CN5C(=O)[C@H](CC(C)C)NC(=O)OC)[nH]4)cc3)cc2)[nH]1 [JG-12, methyl ((1S)-1-(((2S,4R)-4-fluoro-2-(5-(4′-(2-((2S,4R)-4-fluoro-1-((2S)-2-((methoxycarbonyl)amino)-4-methylpentanoyl)-2-pyrrolidinyl)-1H-imidazol-5-yl)-4-biphenylyl)-1H-imidazol-2-yl)-1-pyrrolidinyl)carbonyl)-3-methylbutyl)carbamate] | 9.00 to 12.00 | – |
| COC(=O)N[C@H](C(=O)N1CCC[C@H]1c1ncc(-c2ccc(-c3ccc(-c4cnc([C@@H]5CCCN5C(=O)[C@H](NC(=O)OC)c5ccccc5)[nH]4)c(F)c3)cc2F)[nH]1)[C@H](C)OC [Example D65, methyl ((1S,2R)-1-(((2S)-2-(5-(3,3′-difluoro-4′-(2-((2S)-1-((2R)-2-((methoxyearbonyl)amino)-2-phenylacetyl)-2-pyrrolidinyl)-1H-imidazol-5-yl)-4-biphenylyl)-1H-imidazol-2-yl)-1-pyrrolidinyl)carbonyl)-2-methoxypropyl) carbamate bis(trifluoroacetate)] | 9.00 to 12.00 | – |
